Experimental data from patent US20130202619A1, “METHODS AND MATERIALS FOR REDUCING LIVER FIBROSIS” (MAYO FOUNDATION FOR MEDICAL EDUCATION AND RESEARCH, priority 2010, published 2013).
Several values for one entry are separate records, joined by “and”; a condition that tells them apart may be missing. Equal entries are not always repeated. Entries after “also recorded” stand apart in the source; their conditions may differ.

Legend:
Assay type in all cases: cell-based, human
HuH7 cells [1] = experiment: Lumican gene expression in HuH7 cells exposed to free fatty acids (real-time PCR); details: 400 μM fatty acid, 6 hours
Description: (§1) The hepatocyte cell line HuH7, the cholangiocyte cell line H69, and the hepatic stellate cell line LX2 were grown to confluence in DMEM with 10% fetal bovine serum and antibiotics Penicillin (100 U/mL) and Streptomycin (10 μg/mL) at 37° C. and 5% CO2 Cells were harvested, washed in cold phosphate buffered saline and snap frozen. […] At 24, 48 and 72 hours, cells were trypsin digested, washed three times with ice cold phosphate buffered saline and quick frozen at −80° C. in two separate lots for either protein or RNA extraction. In separate experiments, palmitic or stearic acid was added to the culture media of HuH7 cells at a concentration of 400 μM (Cazanave et al., J. Biol. Chem., 284:26591-26602 (2009)). All experiments were carried out in triplicate and results are reported as the average of triplicates.
(§2) Total RNA was isolated from cells collected from the cell culture experiments (described herein) or from liver tissue samples collected from patient or from mouse experiments (described herein) using the RNeasy Plus kit as per the manufacturer's instructions (Qiagen, GmbH, Germany). 500 ng of total RNA was reverse transcribed into cDNA using random hexamers (Transcriptor High Fidelity cDNA synthesis kit, Roche, USA). Real time PCR was carried on a LightCycler (Roche, CA, USA) using equal quantities of template cDNA in a total volume of 20 μL using Lightcycler FastStart DNA Master SYBR green1 (Roche, Indianapolis, USA). Expression of 18S rRNA was used as the internal standard (Quantum RNA 18S Internal Standards, Ambion Inc, Austin, Tex., USA). Standard curves were generated for each optimized assay using known PCR copy numbers to produce a linear plot of threshold cycle (Ct) against log dilution. Data for lumican is presented as lumican copy number normalized against the 18S absolute copy number where indicated. For all other gene expression assays, results are presented as fold change as represented by the expression 2^−ΔΔCt (Schmittgen & Livak, Nat. Protoc., 3:1101-1108 (2008)).
Gene expression data presented as copy number are expressed as mean±standard error. […]

HuH7 cells [2] = experiment: Response of HuH7 cells to TGFβ1 (gene expression by real-time PCR, cell fate)
Description: as §1, §2
(§3) HuH7 or LX2 cells were plated at uniform density in single well chamber slides adopting the same protocol as for cell culture described above. At time points of 0, 24, 48, and 72 hours post seeding, medium was aspirated, slides were washed with phosphate buffered saline, air dried and stored at −80° C. until staining. Briefly, cells were fixed in acetone, followed by 1% paraformaldehyde. Cells were immunostained with anti human lumican at dilution of 1:50 (Santa Cruz, USA) and detected with appropriate FITC labeled secondary antibodies (MP Biomedicals, OH, USA). Negative controls consisted of identical treatments with omission of primary antibody. DAPI was used for nuclear staining (Sigma, MO, USA). Images were captured on an Olympus microscope with appropriate filter settings for FITC (green) and DAPI (blue).
(§4) Gene expression data presented as copy number are expressed as mean±standard error. Fold changes represent values normalized to 18S and to time point of 0 hours. To assess significance of difference between treatments, the paired 2-tailed student's test with equal variance was used. A p value of <0.05 was considered statistically significant.

LX2 cells = experiment: Response of LX2 cells to TGFβ1 (gene expression by real-time PCR, cell fate)
Description: as §1, §2, §3, §4

[3] = HuH7 cells, TGFβ1 2 ng/mL, 48 hours

Compound	increase in lumican expression (HuH7 cells [1])	increase in lumican expression (HuH7 cells [1]; listed as palmitic)	increase in collagen 1α1 gene expression (HuH7 cells [2]; HuH7 cells, TGFβ1 2 ng/mL, 24 hours)	increase in collagen 1α1 gene expression (HuH7 cells [2]; [3])	increase in lumican gene expression (HuH7 cells [2]; [3])	increase in lumican gene expression over baseline (HuH7 cells [2]; HuH7 cells, TGFβ1 2 ng/mL, 72 hours)	cell fate (apoptosis / proliferation) (HuH7 cells [2]; HuH7 cells, TGFβ1 2 ng/mL, over 72 hours)	decrease in albumin production (HuH7 cells [2]; HuH7 cells, TGFβ1, 24 hours)	increase in alpha smooth muscle actin expression (HuH7 cells [2]; HuH7 cells, TGFβ1, 48 hours)	decrease in albumin production (HuH7 cells [2]; HuH7 cells, TGFβ1, 48 hours (48-72 hours))	beta 1 integrin expression (HuH7 cells [2]; HuH7 hepatocytes, TGFβ1 2 ng/mL, up to 72 hours)	increase in lumican gene expression over baseline (LX2 cells; LX2 cells, TGFβ1 2 ng/mL, 72 hours)	cell fate (apoptosis / proliferation) (LX2 cells; LX2 cells, TGFβ1 2 ng/mL, over 72 hours)	increase in alpha smooth muscle actin expression (LX2 cells; LX2 cells, TGFβ1, 48 hours)	increase in collagen 1α1 gene expression (LX2 cells; LX2 stellate cells, TGFβ1 2 ng/mL, 24 hours)	increase in collagen 1α1 gene expression (LX2 cells; LX2 stellate cells, TGFβ1 2 ng/mL, 48 hours)	beta 1 integrin expression (LX2 cells; LX2 stellate cells, TGFβ1 2 ng/mL, up to 72 hours)
CCCCCCCCCCCCCCCC(=O)O [palmitic acid]	3.1 fold	three fold	–	–	–	–	–	–	–	–	–	–	–	–	–	–	–
CCCCCCCCCCCCCCCCCC(=O)O [stearic acid]	1.9 fold and 2 fold	–	–	–	–	–	–	–	–	–	–	–	–	–	–	–	–
TGFβ1: pro-fibrotic cytokine transforming growth factor β1 (R&D systems), used at 2 ng/mL	–	–	9 fold	> 100 fold	four fold	15 fold and 14 fold	underwent apoptosis	10 fold	fourfold; also recorded: four fold	five fold; also recorded: four fold	no change	27 fold	continued to proliferate	4.5 fold	4 fold	5 fold	gradual increase
